In patent US7501425B1, “Bicyclic pyrimidines and bicyclic 3,4-dihydropyprimidines as inhibitors of cellular proliferation” (Warner Lambert Company, priority 1999, dated 2009):

Columns and labels:
[1] = molecular target: T1, PDGF-β receptor tyrosine kinase (Mus musculus, UniProt P05622); experiment: PDGF receptor tyrosine kinase assay; type: biochemical; conditions: intracellular tyrosine kinase domain, SF9 lysate
T1 construct: amplify a fragment of DNA that codes for the intracellular tyrosine kinase domain; made in house; host or cells: SF9 insect cells (baculovirus)
T1 sequence (P05622 599-961 limits assumed): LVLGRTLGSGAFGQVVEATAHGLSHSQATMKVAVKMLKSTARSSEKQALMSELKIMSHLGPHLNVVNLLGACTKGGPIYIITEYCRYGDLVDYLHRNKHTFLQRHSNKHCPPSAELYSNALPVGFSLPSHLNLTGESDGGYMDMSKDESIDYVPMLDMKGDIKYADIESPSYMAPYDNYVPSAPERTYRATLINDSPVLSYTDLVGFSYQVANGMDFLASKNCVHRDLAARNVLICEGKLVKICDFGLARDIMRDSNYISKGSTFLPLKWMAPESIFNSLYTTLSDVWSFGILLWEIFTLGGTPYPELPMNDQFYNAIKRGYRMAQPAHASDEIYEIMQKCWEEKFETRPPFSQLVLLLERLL
Procedure: The assays used to determine these activities were carried out as follows:
PDGF and FGF Receptor Tyrosine Kinase Assays
PCR primers were designed to amplify a fragment of DNA that codes for the intracellular tyrosine kinase domain. The fragment was inserted into a baculovirus vector, cotransfected with AcMNPV DNA, and the recombinant virus isolated. SF9 insect cells were infected with the virus to overexpress the protein, and the cell lysate was used for the assay. Assays were performed in 96-well plates (100 μL/incubation/well), and conditions were optimized to measure the incorporation of ^32P from γ^32P-ATP into a glutamate-tyrosine co-polymer substrate. Briefly, to each well was added 82.5 μL of incubation buffer containing 25 mM Hepes (pH 7.0), 150 mM NaCl, 0.1% Triton X-100, 0.2 mM PMSF, 0.2 mM Na3VO4, 10 mM MnCl2, and 750 μg/mL of Poly (4:1) glutamate-tyrosine followed by 2.5 μL of inhibitor and 5 μL of enzyme lysate (7.5 μg/μL FGF-TK or 6.0 μg/μL PDGF-TK) to initiate the reaction. Following a 10 minute incubation at 25° C., […] of γ^32P-ATP (0.4 μCi plus 50 μM ATP) was added to each well, and samples were incubated for an additional 10 minutes at 25° C. […] Nonspecific activity was defined as radioactivity retained on the filters following incubation of samples with buffer alone (no enzyme). […]

c-Src = molecular target: T2, c-Src (Homo sapiens, UniProt P12931); experiment: c-Src kinase assay; type: biochemical; conditions: 5 μM ATP, poly GluTyr substrate
T2 construct: made in house; host or cells: baculovirus infected insect cells
T2 sequence (P12931 whole entry, species assumed): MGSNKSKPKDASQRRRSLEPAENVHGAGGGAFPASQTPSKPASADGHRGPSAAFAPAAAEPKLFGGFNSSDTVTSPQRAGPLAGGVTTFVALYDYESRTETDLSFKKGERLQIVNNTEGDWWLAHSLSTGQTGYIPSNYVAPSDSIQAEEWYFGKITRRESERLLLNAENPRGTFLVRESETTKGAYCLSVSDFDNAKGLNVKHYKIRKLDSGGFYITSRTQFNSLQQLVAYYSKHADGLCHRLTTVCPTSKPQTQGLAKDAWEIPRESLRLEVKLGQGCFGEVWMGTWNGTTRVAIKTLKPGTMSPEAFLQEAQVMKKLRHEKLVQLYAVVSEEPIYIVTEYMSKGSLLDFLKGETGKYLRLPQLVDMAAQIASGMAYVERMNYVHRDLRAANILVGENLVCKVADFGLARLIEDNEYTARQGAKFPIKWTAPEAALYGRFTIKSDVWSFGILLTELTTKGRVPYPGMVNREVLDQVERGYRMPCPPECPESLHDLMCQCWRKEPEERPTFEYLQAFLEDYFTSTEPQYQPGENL
Procedure: Several of the invention compounds have been evaluated in a standard assay to measure their ability to inhibit cellular Src protein kinase (c-Src). […] The assay was carried out as follows:
c-Src kinase was purified from baculovirus infected insect cell lysates using an antipeptide monoclonal antibody directed against the N-terminal amino acids (amino acids 2-17) of c-Src. The antibody, covalently linked to 0.65 μm latex beads, was added to a suspension of insect cell lysis buffer comprised of 150 mM NaCl, 50 mM Tris pH 7.5, 1 mM DTT, 1% NP-40, 2 mM EGTA, 1 mM sodium vanadate, 1 mM PMSF, 1 μg/mL each of leupeptin, pepstatin, and aprotinin. Insect cell lysate containing c-Src protein was incubated with these beads for 3 to 4 hours at 4° C. with rotation. At the end of the lysate incubation, the beads were rinsed three times in lysis buffer, resuspended in lysis buffer containing 10% glycerol, and frozen. These latex beads were thawed, rinsed three times in assay buffer (40 mM Tris, pH 7.5, 5 mM […]) and suspended in the same buffer. In a Millipore 96-well plate with a 0.65 μm polyvinylidine membrane bottom were added the reaction components: 10 μL c-Src beads, 10 μL of 2.5 mg/mL poly GluTyr substrate, 5 μM ATP containing 0.2 μCi labeled ^32P-ATP, 5 μL DMSO containing inhibitors or as a solvent control, and buffer to make the final volume 125 μL. The reaction was started at room temperature by addition of the ATP and quenched 10 minutes later by the addition of 125 μL of 30% TCA, 0.1 M sodium pyrophosphate for 5 minutes on ice. The plate was then filtered and the wells washed with two […] aliquots of 15% TCA, 0.1 M pyrophosphate. The filters were then punched, counted in a liquid scintillation counter, and the data examined for inhibitory activity in comparison to a known inhibitor such as erbstatin. The method is also described in J. Med. Chem., 1994; 37:598-609. Tables 5 and 6 list c-Src inhibitory concentrations (IC50) for representative invention compounds.

cdc2/cyclinB = cdc2/cyclinB (Homo sapiens, UniProt P06493); experiment: Cyclin-dependent kinase assay cdc2/cyclinB (cdk1/B); type: biochemical
Chain of cdc2/cyclinB (P06493 whole entry, species assumed): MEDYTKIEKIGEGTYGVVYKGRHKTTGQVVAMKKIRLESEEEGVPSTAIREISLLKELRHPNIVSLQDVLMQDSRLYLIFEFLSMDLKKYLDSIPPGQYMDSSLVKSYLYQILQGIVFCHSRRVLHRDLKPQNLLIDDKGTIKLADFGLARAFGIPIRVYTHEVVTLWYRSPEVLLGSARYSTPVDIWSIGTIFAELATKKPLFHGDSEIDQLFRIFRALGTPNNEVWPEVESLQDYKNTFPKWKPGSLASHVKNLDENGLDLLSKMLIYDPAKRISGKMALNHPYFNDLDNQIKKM
Chain of cdc2/cyclinB (P14635 whole entry partner, species assumed): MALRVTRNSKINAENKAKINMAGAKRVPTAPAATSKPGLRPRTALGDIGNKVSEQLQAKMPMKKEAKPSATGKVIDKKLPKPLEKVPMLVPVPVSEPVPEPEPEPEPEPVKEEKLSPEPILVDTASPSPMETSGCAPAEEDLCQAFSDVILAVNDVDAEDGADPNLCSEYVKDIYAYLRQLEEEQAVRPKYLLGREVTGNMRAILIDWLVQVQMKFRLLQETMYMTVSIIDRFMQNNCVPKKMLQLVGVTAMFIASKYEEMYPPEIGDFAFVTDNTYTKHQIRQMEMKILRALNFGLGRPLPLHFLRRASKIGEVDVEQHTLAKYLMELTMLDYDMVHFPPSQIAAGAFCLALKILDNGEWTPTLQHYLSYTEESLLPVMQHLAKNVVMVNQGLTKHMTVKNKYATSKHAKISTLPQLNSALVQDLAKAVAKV
Procedure: (§1) Cyclin-Dependent Kinase Assays (cdk2/cyclinE, cdk2/cyclinA, cdc2/cyclinB)
(§2) All components except the ATP were added to the wells, and the plate was placed on a plate mixer for 2 minutes. The reaction was begun by addition of [^32P]ATP, and the plate was incubated at 25° C. for 15 minutes. The reaction was terminated by addition of 0.1 mL of 20% TCA. The plate was kept at 4° C. for at least 1 hour to allow the substrate to precipitate. The wells were then washed five times with 0.2 mL of 10% TCA and ^32P incorporation determined with a beta plate counter (Wallac Inc., Gaithersburg, Md.).

cdk2/cyclinE = cdk2/cyclinE (Homo sapiens, UniProt P24941); experiment: Cyclin-dependent kinase assay cdk2/cyclinE; type: biochemical; conditions: for IC50: read-out: cdk2/E IC50; for inhibition at 40 µM: read-out: cdk2/E % Inhibition at 40 μM
Procedure: as §1, §2

cdk4/D = cdk4/D (Homo sapiens, UniProt P11802); experiment: Cyclin-Dependent Kinase 4 (cdk4) enzyme assay, 32P incorporation; type: biochemical; conditions: for IC50: 25 μM ATP, retinoblastoma substrate
Chain of cdk4/D (P11802 whole entry, species assumed): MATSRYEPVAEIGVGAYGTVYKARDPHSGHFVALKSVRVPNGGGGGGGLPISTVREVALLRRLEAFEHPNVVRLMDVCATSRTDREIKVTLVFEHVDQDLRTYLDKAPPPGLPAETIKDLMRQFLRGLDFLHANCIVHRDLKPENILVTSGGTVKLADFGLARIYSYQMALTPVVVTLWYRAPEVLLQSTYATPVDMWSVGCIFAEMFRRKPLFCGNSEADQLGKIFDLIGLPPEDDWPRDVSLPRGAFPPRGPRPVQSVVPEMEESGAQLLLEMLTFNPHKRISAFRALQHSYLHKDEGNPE
Chain of cdk4/D (P24385 whole entry partner, species assumed): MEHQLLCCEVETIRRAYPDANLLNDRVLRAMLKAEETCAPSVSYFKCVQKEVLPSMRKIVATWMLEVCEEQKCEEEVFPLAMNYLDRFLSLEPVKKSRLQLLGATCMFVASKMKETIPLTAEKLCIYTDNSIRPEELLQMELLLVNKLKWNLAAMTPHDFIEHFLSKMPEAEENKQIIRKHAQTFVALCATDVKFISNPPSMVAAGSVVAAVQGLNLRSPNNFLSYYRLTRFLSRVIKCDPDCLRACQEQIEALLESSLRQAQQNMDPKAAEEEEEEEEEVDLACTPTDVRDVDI
Procedure: A typical assay, for instance, measures inhibitory activity against the cyclin D dependent kinase 4 enzyme (cdk4/D). […] The cdk4 assay was carried out as follows.
Cyclin-Dependent Kinase 4 (cdk4) Assay
Enzyme assays for IC50 determinations (Tables 1 and 2) and kinetic evaluation were performed in 96 well filter plates (Millipore MADVN6550). The total volume was 0.1 mL containing a final concentration of 20 mM TRIS (tris[hydroxymethyl]aminomethane), at pH 7.4, 50 mM NaCl, 1 mM dithiothreitol, 10 mM MgCl2, 25 μM ATP containing 0.25 μCi of [^32P]ATP, 20 ng of cdk4, 1 μg of retinoblastoma, and appropriate dilutions of a compound of the present invention. All components except the ATP were added to the wells, and the plate was placed on a plate mixer for 2 minutes. The reaction was started by adding [^32P]ATP and the plate was incubated at 25° C. for 15 minutes. The reaction was terminated by addition of 0.1 mL of 20% trichloroacetic acid (TCA). The plate was kept at 4° C. for at least 1 hour to allow the substrate to precipitate. The wells were then washed five times with 0.2 mL of 10% TCA and ^32p incorporation was determined with a beta plate counter (Wallac Inc., Gaithersburg. MD).

cdk2/cyclinA = cdk2/cyclinA (Homo sapiens, UniProt P24941); experiment: Cyclin-dependent kinase assay cdk2/cyclinA; type: biochemical
Procedure: as §1, §2

For `CN(C)C1CCN(c2ccc(Nc3ncc4c(n3)N(C3CCCC3)C(=O)NC4)cc2)CC1` [Example 17, 1-Cyclopentyl-7-{4-[4-(dimethylamino)piperidin-1-yl]phenylamino}-3,4-dihydro-pyrimido[4,5-d]pyrimidin-2(1H)-one], the IC50 [1] was 0.32 µM, the IC50 (c-Src) was 0.37 µM and the IC50 (cdc2/cyclinB) was 20.2 µM. The melting point was > 200 °C (dec.), the IC50 (cdk2/cyclinE) was 3.55 µM and the IC50 (cdk4/D) was 0.31 µM. For the same molecule, the IC50 (cdk2/cyclinA) was 1.31 µM.

`O=C1NCc2cnc(Nc3ccc(N4CCC(CCN5CCOCC5)CC4)cc3)nc2N1C1CCCC1` [Example 21] gave an IC50 [1] of 1.1 µM, an IC50 (c-Src) of 1.6 µM and an IC50 (cdc2/cyclinB) of 36.1 µM. The IC50 (cdk2/cyclinE) was 3 µM, the IC50 (cdk4/D) was 0.165 µM and the IC50 (cdk2/cyclinA) was 1.37 µM.

In the case of `CN1C(=O)NCc2cnc(Nc3ccc(N4CCC(O)CC4)cc3)nc21.O=C(O)C(F)(F)F` [Example 29, 7-[4-(4-Hydroxypiperidin-1-yl)phenylamino]-1-methyl-3,4-dihydro-pyrimido[4,5-d]pyrimidin-2(1H)-one; Compound with trifluoroacetic acid], the melting point is reported as 228 to 229 °C (dec.) and the inhibition at 40 µM (cdk2/cyclinE) is reported as 28%.

In the case of `O=C1NCc2cnc(Nc3ccc(-n4cccn4)cc3)nc2N1C1CCCC1` [Example 12, 1-Cyclopentyl-7-[4-(pyrazol-1-yl)phenylamino]-3,4-dihydro-pyrimido[4,5-d]pyrimidin-2(1H)-one], the IC50 (cdc2/cyclinB) is reported as 12.2 µM, the IC50 (cdk2/cyclinE) is reported as 4.6 µM and the IC50 (cdk4/D) is reported as 1.8 µM. It also gave an IC50 (cdk2/cyclinA) of 1.33 µM.

In the case of `CC(C)n1c(=O)ncc2cnc(Nc3ccc(N4CCN(C)CC4)cc3)nc21` [Example 40, 1-Isopropyl-7-[4-(4-methylpiperazin-1-yl)phenylamino]pyrimido[4,5-d]pyrimidin-2(1H)-one], the inhibition at 40 µM (cdc2/cyclinB) is reported as 42% and the melting point is reported as 228 to 229 °C (dec.).

`C=CCn1c(=O)c2cnc(Nc3ccc(OCCN(CC)CC)cc3)nc2n(C(C)C)c1=O` [Example 72, 3-Allyl-7-[4-(2-Diethylaminoethoxy)phenylamino]-1-isopropyl-1H-pyrimido[4,5-d]pyrimidine-2,4-dione] showed a melting point of 90 to 96 °C and an inhibition at 40 µM (cdk2/cyclinE) of 0%.

With `CN1CCN(c2ccc(Nc3ncc4c(n3)N(C3CC5CCC3C5)C(=O)NC4)cc2)CC1` (stereo not drawn) [Example 27, 1-Bicyclo[2.2.1]hept-2-yl-7-[4-(4-methylpiperazin-1-yl)phenylamino]-3,4-dihydro-pyrimido[4,5-d]pyrimidin-2(1H)-one (exo)] the IC50 (cdc2/cyclinB) was 9.77 µM, the melting point was 251 to 254 °C (dec.) and the IC50 (cdk2/cyclinE) was 1.1 µM. For the same molecule, the IC50 (cdk4/D) was 0.77 µM and the IC50 (cdk2/cyclinA) was 0.53 µM.

In the case of `Cn1c(=O)ncc2cnc(Nc3ccc(-n4cccn4)cc3)nc21` [Example 47, 1-Methyl-7-[4-(pyrazol-1-yl)phenylamino]pyrimido[4,5-d]pyrimidin-2(1H)-one], the melting point is reported as > 290 °C (dec.) and the inhibition at 40 µM (cdk2/cyclinE) is reported as 41%.

With `CN1CCN(c2ccc(Nc3ncc4c(n3)N(C)C(=O)NC4)cc2)CC1.O=C(O)C(F)(F)F` [Example 28, 1-Methyl-7-[4-(4-methylpiperazin-1-yl)phenylamino]-3,4-dihydro-pyrimido[4,5-d]pyrimidin-2(1H)-one; compound with trifluoroacetic acid] the melting point was 234 to 235 °C (dec.), the inhibition at 40 µM (cdk2/cyclinE) was 22% and the inhibition at 40 µM (cdk4/D) was 15%.

With `C=CCn1c(=O)c2cnc(Nc3ccc(N4CCN(C)CC4)cc3)nc2n(C(C)C)c1=O` [Example 70, 3-Allyl-1-isopropyl-7-[4-(4-methylpiperazin-1-yl)phenylamino]-1H-pyrimido[4,5-d]pyrimidine-2,4-dione] the melting point was 176 to 177 °C and the inhibition at 40 µM (cdk2/cyclinE) was 0%.

For `CN1CCN(c2ccc(Nc3ncc4cnc(=O)n(C)c4n3)cc2)CC1` [Example 45, 1-Methyl-7-[4-(4-methylpiperazin-1-yl)phenylamino]pyrimido[4,5-d]pyrimidin-2(1H)-one], the melting point was 259 to 260 °C (dec.) and the inhibition at 40 µM (cdk2/cyclinE) was 16%.

With `CN1C(=O)NCc2cnc(Nc3ccc(-n4cccn4)cc3)nc21.O=C(O)C(F)(F)F` [Example 31, 1-Methyl-7-[4-(pyrazol-1-yl)phenylamino]-3,4-dihydro-pyrimido[4,5-d]pyrimidin-2(1H)-one; Compound with trifluoroacetic acid] the melting point was 250 to 251 °C (dec.), the inhibition at 40 µM (cdk2/cyclinE) was 21% and the inhibition at 40 µM (cdk4/D) was 18%.

With `CC(C)N1C(=O)NCc2cnc(Nc3ccc(N4CCN(C)CC4)cc3)nc21` [Example 22, 1-Isopropyl-7-[4-(4-methylpiperazin-1-yl)phenylamino]-3,4-dihydro-pyrimido[4,5-d]pyrimidin-2(1H)-one] the inhibition at 40 µM (cdc2/cyclinB) was 25%, the melting point was 234 to 237 °C (dec.) and the inhibition at 40 µM (cdk2/cyclinE) was 68%.

In the case of `CC(C)N1C(=O)NCc2cnc(Nc3ccc(N4CCC(CCCN5CCOCC5)CC4)cc3)nc21` [Example 26, 1-Isopropyl-7-{4-[4-(3-(morpholin-1-yl)propyl)piperidin-1-yl]phenylamino}-3,4-dihydro-pyrimido[4,5-d]pyrimidin-2(1H)-one], the IC50 (cdc2/cyclinB) is reported as over 40 µM, the melting point is reported as 203 to 205 °C (dec.) and the IC50 (cdk2/cyclinE) is reported as 27 µM. It also gave an IC50 (cdk2/cyclinA) of 6.46 µM.

For `CC(C)N1C(=O)NCc2cnc(Nc3ccc(N4CCC(N(C)C)CC4)cc3)nc21.O=C(O)C(F)(F)F` [Example 24, 7-{4-[4-(Dimethylamino)piperidin-1-yl]phenylamino}-1-isopropyl-3,4-dihydro-pyrimido[4,5-d]pyrimidin-2(1H)-one; compound with trifluoroacetic acid], the melting point was 215 to 217 °C (dec.).

In the case of `O=C1NCc2cnc(Nc3ccc(-n4cccc4)cc3)nc2N1C1CCCC1` [Example 14, 1-Cyclopentyl-7-[4-(pyrrol-1-yl)phenylamino]-3,4-dihydro-pyrimido[4,5-d]pyrimidin-2(1H)-one], the melting point is reported as > 200 °C (dec.) and the inhibition at 40 µM (cdk2/cyclinE) is reported as 38%.
